Experimental data as given in article PMC9578143, “Small-Molecule Ebselen Binds to YTHDF Proteins Interfering with the Recognition of N^6-Methyladenosine-Modified RNAs” (ACS Pharmacology & Translational Science, 2022).
“And” between values parts separate entries of the source, which are not always exact repeats. Equal values may be shown once. “Also recorded” adds a separate entry of the source. Read-outs that look alike come from different tables or passages of the source.

How the values were obtained:
YTHDF1 YTH domain [1] = target: T1, YTHDF1 YTH domain (human, UniProt Q9BYJ9 365-554); assay: dynamic mass redistribution; details: EC50; immobilized protein; m6A; Fluorescence: 20 mM Hepes pH 7.5, 150 mM NaCl, 10% glycerol; REMSA: 20 mM Hepes pH 7.5, 50 mM KCl, BSA, 0.25% glycerol, gel at 4 C; AlphaScreen: 25 mM Hepes pH …
T1 sequence: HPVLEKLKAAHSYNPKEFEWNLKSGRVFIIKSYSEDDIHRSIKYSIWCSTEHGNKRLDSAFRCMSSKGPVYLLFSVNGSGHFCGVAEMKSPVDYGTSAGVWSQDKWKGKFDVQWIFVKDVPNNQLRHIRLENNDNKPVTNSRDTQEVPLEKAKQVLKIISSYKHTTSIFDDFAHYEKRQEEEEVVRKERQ

YTHDF1 YTH domain [2] = target: T2, YTHDF1 YTH domain (Homo sapiens, UniProt Q9BYJ9); assay: Tryptophan fluorescence quenching assay; format: binding
T2 construct: The human YTHDF1 YTH domain (amino acids 365–554, PDB: 4RCJ); host or cells: E. coli BL21(DE3)
T2 sequence (Q9BYJ9 365-554): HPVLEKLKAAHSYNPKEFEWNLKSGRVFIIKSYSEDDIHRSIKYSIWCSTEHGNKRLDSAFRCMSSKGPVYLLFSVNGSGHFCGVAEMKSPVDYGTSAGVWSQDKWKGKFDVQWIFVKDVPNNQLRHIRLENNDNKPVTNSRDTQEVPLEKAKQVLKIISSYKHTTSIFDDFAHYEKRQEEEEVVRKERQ
Protocol: Fluorescence was measured using a Tecan Infinite 200 Microplate reader (Tecan Group Ltd.), setting the […] wavelength at 288 nm and collecting the emission data at 330 nm.

[3] = target: T3, YTH domain of YTHDF1 / biotinylated RNA probe 5′-Bi-CCGAm6ACUGUC-3′ (Homo sapiens, UniProt Q9BYJ9); assay: AlphaScreen competitive assay, saturation binding; details: for Disruption of the YTH/RNA interaction (AlphaScreen, in words): YTHDF1 YTH domain
T3 construct: The human YTHDF1 YTH domain (amino acids 365–554, PDB: 4RCJ); host or cells: E. coli BL21(DE3)
T3 sequence (Q9BYJ9 365-554): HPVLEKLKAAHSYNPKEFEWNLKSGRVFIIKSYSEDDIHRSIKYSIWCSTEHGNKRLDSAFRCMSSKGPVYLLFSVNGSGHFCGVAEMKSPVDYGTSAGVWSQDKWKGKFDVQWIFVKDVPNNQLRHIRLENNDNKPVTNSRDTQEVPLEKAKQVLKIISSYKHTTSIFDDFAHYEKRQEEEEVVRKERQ
Protocol: The Amplified Luminescent Proximity Homogeneous Assay (ALPHA Assay) was performed in white 384-well Optiplates (PerkinElmer) in a final volume of 20 μL, and it was first optimized by titrating both the protein and the biotinylated RNA probe (5′-Bi-CCGAm6ACUGUC-3′, Dharmacon) to find the appropriate right protein/RNA ratio before the saturation of the detection signal. […] Anti-His acceptor beads (PerkinElmer) (20 μg/mL final concentration) and streptavidin donor beads (20 μg/mL final concentration) were added and the reaction was incubated in the dark at room temperature for 1 h to reach equilibrium. Light signals were detected with an Enspire Multimode Plate reader (PerkinElmer). […] The IC50 of ebselen was determined from the nonlinear regression fits of the data.

YTHDF1 domain = target: T4, YTHDF1 domain (Homo sapiens, UniProt Q9BYJ9); assay: High-throughput screen, tryptophan quenching, Z-score; format: binding; details: 5 μM protein, compounds at 10 μM
T4 construct: The human YTHDF1 YTH domain (amino acids 365–554, PDB: 4RCJ); host or cells: E. coli BL21(DE3)
T4 sequence (Q9BYJ9 365-554): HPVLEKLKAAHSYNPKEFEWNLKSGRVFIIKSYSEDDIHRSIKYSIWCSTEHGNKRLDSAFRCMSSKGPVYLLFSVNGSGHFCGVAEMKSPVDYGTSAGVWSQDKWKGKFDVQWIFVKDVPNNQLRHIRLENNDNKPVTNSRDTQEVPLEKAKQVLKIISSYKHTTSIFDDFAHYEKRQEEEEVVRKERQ
Protocol: A Z factor of 0.53 was obtained. The high-throughput screen was performed by using an automatic liquid handling (Freedom EVO, Tecan), filling black 384-well plates with 15 μL of 5 μM protein in 20 mM Tris (pH 7.5), 150 mM NaCl, and 10% glycerol, and then by adding the library of compounds at a final concentration of 10 μM. Fluorescence was measured immediately after compound addition. The library used was the Spectrum Collection (Microsource Discovery System, Inc.), composed of 2560 compounds, of whom 60% are clinically used drugs, 25% natural products, and 15% other bioactive molecules. The Z-score was calculated as (X – μp)/σp, where X is the fluorescence intensity of the protein. Candidate molecules were considered all of the ones that were under the threshold of Z = −3, while all of the ones over that value were discarded.

YTHDF1 YTH domain [4] = target: T1, YTHDF1 YTH domain; assay: tryptophan fluorescence quenching; EC50; 5 uM protein; Fluorescence: 20 mM Hepes pH 7.5, 150 mM NaCl, 10% glycerol; REMSA: 20 mM Hepes pH 7.5, 50 mM KCl, BSA, 0.25% glycerol, gel at 4 C; AlphaScreen: 25 mM Hepes pH; details: protein: recombinant; tags: 6xHis (C-terminal as stated); single strand
YTHDF1 YTH domain [5] = target: T1, YTHDF1 YTH domain; assay: tryptophan fluorescence quenching; 5 uM protein; Fluorescence: 20 mM Hepes pH 7.5, 150 mM NaCl, 10% glycerol; REMSA: 20 mM Hepes pH 7.5, 50 mM KCl, BSA, 0.25% glycerol, gel at 4 C; AlphaScreen: 25 mM Hepes pH; details: protein: recombinant; tags: 6xHis (C-terminal as stated); single strand
[6] = 5 μM protein, read-out: EC50 (tryptophan quenching)
[7] = Table 1, read-out: EC50 (μM) (Tryptophan quenching)

Q: With m6A RNA probe used in DMR as the molecule, how does the K half (YTHDF1 YTH domain [1]) read?
A: 63.8 nM

Q: How did the EC50 (YTHDF1 YTH domain [2]; [6]) turn out when `CNc1ncnc2c1ncn2[C@@H]1O[C@H](CO)[C@@H](O)[C@H]1O` [m6A, N^6-methyladenosine] was run?
A: 596 µM

Q: Which EC50 (YTHDF1 YTH domain [2]; [7]) does the source give for `O=c1c2ccccc2sn1CCN1CCOCC1` [Compound 9, 2-(2-Morpholinoethyl)benzo[d]isothiazol-3(2H)-one] here?
A: 2.83 ± 1.08 µM

Q: How did the EC50 (YTHDF1 YTH domain [2]; [7]) turn out when `O=c1c2ccccc2sn1-c1ccc(F)cc1` [Compound 5, 2-(4-Fluorophenyl)benzo[d]isothiazol-3(2H)-one] was run?
A: 1.63 ± 0.89 µM

Q: 5-′CCGAm6ACUGUC-3′ was tested. Which EC50 (YTHDF1 YTH domain [2]; [6]) did it give?
A: 0.14 µM and 0.139 µM

Q: With `O=C1c2ccccc2CN1c1ccccc1` [Compound 3, 2-phenylisoindolin-1-one] as the molecule, how does the “Disruption of the YTH/RNA interaction (AlphaScreen, in words)” value [3] read?
A: completely abolished; also recorded: failed

Q: What about the “Tryptophan fluorescence quenching / binding to the YTH domain (in words)” value (YTHDF1 YTH domain [2]) of the same molecule?
A: completely abolished; also recorded: failed to generate a dose–response curve

Q: And the EC50 (YTHDF1 YTH domain [2]; [7])?
A: > 100 µM

Q: How did the “Mean(FI.z-score)” value (YTHDF1 domain) turn out when `O=C1C(Cl)=C(Cl)C(=O)c2c(O)ccc(O)c21` [2,3-DICHLORO-5,8-DIHYDROXYNAPTHOQUINONE] was run?
A: -3.853

Q: With `O=c1c2ccccc2sn1-c1ccccc1` [Compound 2, 2-Phenylbenzo[d]isothiazol-3(2H)-one] as the molecule, how does the IC50 ([3]; 50 nM RNA, 50 nM protein, compound 0–100 μM) read?
A: 23.14 ± 0.08 µM

Q: What about the “Disruption of the YTH/RNA interaction (AlphaScreen, in words)” value [3] of the same molecule?
A: maintained both capacities

Q: What about the “Tryptophan fluorescence quenching / binding to the YTH domain (in words)” value (YTHDF1 YTH domain [2]) of the same molecule?
A: maintained both capacities

Q: What about the EC50 (YTHDF1 YTH domain [2]; [7]) of the same molecule?
A: 1.76 ± 0.02 µM

Q: `O=C1C(Cl)=C(Cl)C(=O)C(Cl)=C1Cl` [CHLORANIL] was tested. Which “Mean(FI.z-score)” value (YTHDF1 domain) did it give?
A: -4.349

Q: How did the EC50 (YTHDF1 YTH domain [2]; [7]) turn out when `O=C(NCCN1CCOCC1)c1ccccc1SSc1ccccc1C(=O)NCCN1CCOCC1` [Compound 10, 2,2′-Disulfanediylbis(N-(2-morpholinoethyl)benzamide)] was run?
A: 2.9 ± 1.8 µM

Q: `CCN(CC)CCn1sc2ccccc2c1=O` [Compound 7, 2-(2-(Diethylamino)ethyl)benzo[d]isothiazol-3(2H)-one] was tested. Which EC50 (YTHDF1 YTH domain [2]; [7]) did it give?
A: 1.69 ± 0.26 µM

Q: `O=c1c2ccccc2[se]n1-c1ccc(F)cc1` [Compound 4, 2-(4-Fluorophenyl)benzo[d][1,2]selenazol-3(2H)-one] was tested. Which EC50 (YTHDF1 YTH domain [2]; [7]) did it give?
A: 1.89 ± 0.33 µM

Q: For `Nc1ncnc2c1ncn2[C@@H]1O[C@H](CO)[C@@H](O)[C@H]1O` [adenosine], which “Tryptophan fluorescence quenching / binding to the YTH domain (in words)” value (YTHDF1 YTH domain [2]) is on record?
A: not upon adenosine addition

Q: With `CCN(CC)CCn1[se]c2ccccc2c1=O` [Compound 6, 2-(2-(Diethylamino)ethyl)benzo[d][1,2]selenazol-3(2H)-one] as the molecule, how does the EC50 (YTHDF1 YTH domain [2]; [7]) read?
A: 1.48 ± 0.26 µM

Q: How did the EC50 (YTHDF1 YTH domain [2]; [7]) turn out when `O=c1c2ccccc2[se]n1CCN1CCOCC1` [Compound 8, 2-(2-Morpholinoethyl)benzo[d][1,2]selenazol-3(2H)-one] was run?
A: 3.35 ± 2.2 µM

B1: GAm6ACU ssRNA (ssRNA)
RNA: CCGAACUGUC
modifications: m6A at position 5
Q: How did the “apparent K (half saturation)” value (YTHDF1 YTH domain [4]) turn out when B1 was run?
A: 140 nM

B2: GAACU ssRNA unmethylated (ssRNA)
RNA: CCGAACUGUC
Q: Does B2 bind (YTHDF1 YTH domain [5])?
A: no binding

B3: GGACU ssRNA unmethylated (ssRNA)
RNA: CCGGACUGUC
Q: Does B3 bind (YTHDF1 YTH domain [5])?
A: no binding

B4: GGm6ACU ssRNA (m6A-RNA) (ssRNA)
RNA: CCGGACUGUC
modifications: m6A at position 5
Q: B4 was tested. Which “apparent K (half saturation)” value (YTHDF1 YTH domain [4]) did it give?
A: 1050 nM
